Measured values reported in PMC3707518 (Journal of nuclear medicine : official publication, Society …, 2010).
Several values for one entry are separate records, joined by “and”; a condition that tells them apart may be missing. Equal values may be shown once.

Experiments:
[1] = tested on: β2*-nAChR; conditions: cited from earlier work
[2] = cited from earlier work
[3] = tested on: β2*-nAChRs; conditions: nonhuman primates, cited from earlier work
[4] = molecular target: T1, β2*-nAChRs (Homo sapiens, UniProt P17787); experiment: ^123I-5-IA SPECT regional uptake; type: in vivo
[5] = molecular target: T1, β2*-nAChRs; conditions: 3 h after smoking challenge; representative subject, Fig. 4
[6] = molecular target: T1, β2*-nAChRs; conditions: 3.1 h; cited from earlier work
[7] = dependent smokers; cited from earlier work
[8] = Plasma nicotine and cotinine levels, smoking challenge and abstinence check

T1 sequence (P17787 26-502): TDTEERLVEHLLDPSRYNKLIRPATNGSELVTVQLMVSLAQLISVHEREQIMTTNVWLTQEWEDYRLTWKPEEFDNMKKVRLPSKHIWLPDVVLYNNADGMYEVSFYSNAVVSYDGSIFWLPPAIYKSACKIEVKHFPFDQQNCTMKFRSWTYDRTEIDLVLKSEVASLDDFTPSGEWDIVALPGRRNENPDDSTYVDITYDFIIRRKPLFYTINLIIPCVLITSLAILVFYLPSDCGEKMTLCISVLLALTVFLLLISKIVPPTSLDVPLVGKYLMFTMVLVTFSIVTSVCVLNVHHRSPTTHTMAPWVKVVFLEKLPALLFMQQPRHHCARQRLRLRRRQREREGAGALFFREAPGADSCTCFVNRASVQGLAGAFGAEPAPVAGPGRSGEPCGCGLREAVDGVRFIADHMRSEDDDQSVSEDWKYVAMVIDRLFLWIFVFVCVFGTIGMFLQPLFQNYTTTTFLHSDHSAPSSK

Compound: c1cncc(OC[C@@H]2CCN2)c1 [A-85380, 3-[2(S)-2-azetidinylmethoxy]pyridine]
- Affinity [1]: high affinity
- Selectivity for the β2*-nAChR [1]: high selectivity

Compound: [123I]c1cncc(OC[C@@H]2CCN2)c1 [^123I-5-IA, 5-^123I-iodo-85380]
- Safety [2]: safe and nontoxic
- Nondisplaceable binding in the thalamus ([3]; inferred from specific binding): about 30%
- Specific binding in the thalamus [3]: about 70%
- Nondisplaceable uptake VND/fp ([4]; average and range across subjects, brain, after smoking to satiety): 19.4 ± 5.8 mL·cm^−3 and 15–28 mL·cm^−3
- Average VND without correcting for fp ([4]; not corrected for plasma free fraction): 7.03 ± 1.92 kBq/cm^3

Compound: CN1CCC[C@H]1c1cccnc1 [nicotine]
- Maximal occupancy [5]: 69.1%
- Nicotine in blood at the time of greatest occupancy [6]: less than 4 ng/mL
- Time for nicotine from tobacco smoke to reach the brain after inhalation [7]: ≤ 30 s
- Time of highest nicotine concentration ([8]; after initiation of tobacco smoking, representative subject, Fig. 2B): 20 min
- Blood nicotine area under curve (60 min) ([8]; after smoking to satiety, individual subjects 1-10 and mean ± SD): 4,864.0 and 3,764.0 and 8,273.0 and 8,124.0 and 8,544.3 ± 7,068.8 and 3,470.0 and 7,153.0 and 7,840.0 and 27,700.0 and 4,488.0 and 9,767.0
